Source: patent US20260285802A1, “MODULATORS OF SORTILIN ACTIVITY” (priority 2023, published 2026)

molecular target: T1, Human (6-His) Sortilin (Homo sapiens, UniProt Q99523); experiment: biochemical
T1 sequence (Q99523 78-831): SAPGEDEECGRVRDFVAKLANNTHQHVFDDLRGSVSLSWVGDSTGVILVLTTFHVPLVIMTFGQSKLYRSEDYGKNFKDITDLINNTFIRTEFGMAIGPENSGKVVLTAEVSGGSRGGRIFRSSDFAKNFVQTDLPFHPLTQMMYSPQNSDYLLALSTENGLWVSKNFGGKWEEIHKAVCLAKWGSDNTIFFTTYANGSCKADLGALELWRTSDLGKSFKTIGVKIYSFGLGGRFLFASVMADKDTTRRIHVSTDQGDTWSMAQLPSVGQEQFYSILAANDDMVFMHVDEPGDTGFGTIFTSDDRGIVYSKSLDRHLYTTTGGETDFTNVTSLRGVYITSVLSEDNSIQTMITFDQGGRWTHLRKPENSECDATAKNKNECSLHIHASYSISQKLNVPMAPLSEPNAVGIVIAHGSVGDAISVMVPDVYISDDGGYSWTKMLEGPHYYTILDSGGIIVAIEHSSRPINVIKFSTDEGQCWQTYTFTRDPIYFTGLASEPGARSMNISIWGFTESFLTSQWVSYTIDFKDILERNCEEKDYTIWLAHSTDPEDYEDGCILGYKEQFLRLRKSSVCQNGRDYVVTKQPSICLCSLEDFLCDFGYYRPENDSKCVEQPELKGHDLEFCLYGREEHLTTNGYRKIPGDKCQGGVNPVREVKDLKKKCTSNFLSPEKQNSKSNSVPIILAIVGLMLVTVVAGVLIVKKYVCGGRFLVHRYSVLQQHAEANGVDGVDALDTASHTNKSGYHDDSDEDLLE

Compound | Kd
CC(C)(C)CCC(Nc1ccccc1)c1nnn[nH]1 (racemic) [Example 39, N-phenyl[4,4-dimethyl-1-(2H-tetraazol-5-yl)pentyl]amine] | 2.84 µM
CC(C)CC(Nc1cccnc1)c1nnn[nH]1 (racemic) [Example 63, [3-methyl-1-(2H-tetraazol-5-yl)butyl]-3-pyridylamine] | 47.3 µM
CC(C)CC(Nc1ccccc1)c1nnn[nH]1 (racemic) [Example 67, [3-methyl-1-(2H-tetraazol-5-yl)butyl]aniline] | 111 µM
COc1ccc2c(NC(CCC(C)(C)C)c3nnn[nH]3)ncnc2c1 (racemic) [Example 85, [4,4-dimethyl-1-(2H-tetraazol-5-yl)pentyl](7-methoxy-4-quinazolinyl)amine] | 0.0913 µM
CC(C)(C)CCC(Nc1ncnc2cc(C(F)(F)F)ccc12)c1nnn[nH]1 (racemic) [Example 87, [4,4-dimethyl-1-(2H-tetraazol-5-yl)pentyl][7-(trifluoromethyl)-4-quinazolinyl]amine] | 0.351 µM

These reach a lower Kd. Values come first.

Kd | Compound
0.0857 µM | Cc1nc(NC(CCC(C)(C)C)c2nnn[nH]2)c2ccccc2n1 (racemic) [Example 89, [4,4-dimethyl-1-(2H-tetraazol-5-yl)pentyl](2-methyl-4-quinazolinyl)amine]
0.018 µM | Cc1nc(N[C@@H](CCC(C)(C)C)C(=O)O)c2ccccc2n1 [Example 118, (S)-5,5-Dimethyl-2-((2-methylquinazolin-4-yl)amino)hexanoic acid]
0.014 µM | CC(C)(C)CC[C@H](Nc1nc(C2CC2)nc2ccccc12)C(=O)O [Example 119, (S)-2-((2-Cyclopropylquinazolin-4-yl)amino)-5,5-dimethylhexanoic acid]
